Assay results as given in publication PMC1971568 (British Journal of Cancer, 1990).
Read-outs that look alike come from different tables or passages of the source.

How the values were obtained:
[1] = Nu/Nu, mouse, in vivo, iv
[2] = system: human JAR choriocarcinoma cell line; conditions: cited from earlier work
[3] = system: CC3 tumours; parameters: method as in Bagshawe et al., 1988; conditions: single course of two phase prodrug therapy (antibody-enzyme conjugate then prodrug); ref Bagshawe et al., 1988; cited from earlier work
[4] = system: LS174T colonic cell line; parameters: method as in Springer et al., 1990; conditions: ref Springer et al., 1990; cited from earlier work
[5] = Localisation of antibody-enzyme conjugate: enzyme activity in tissues, CC3 model; conditions: tissue homogenate incubated at 37C with prodrug 34 µg ml-1 (87 µM)
[6] = system: carboxypeptidase G2 (CPG2); parameters: method as in Bagshawe et al., 1988; conditions: ref Bagshawe et al., 1988; cited from earlier work
[7] = in vivo, ip

O=C(O)CC[C@H](NC(=O)c1ccc(N(CCCl)CCCl)cc1)C(=O)O [prodrug, 4-(bis (2-chloroethyl)amino) benzoyl-L-glutamic acid]
AUC, area under plasma concentration versus time curve from zero to infinity [1]: 15.4 | Cytotoxicity against JAR cells in culture [2]: very little cytotox- icity | Growth of CC3 tumours [3]: marked inhibition of growth | Cytotoxicity against LS174T cells in culture [4]: very little cytotox- icity | Activation of prodrug by tissues of mice which did not receive conjugate [5]: No activation | Affinity of the enzyme for prodrug [6]: very high affinity | AUC, area under plasma concentration versus time curve from zero to infinity ([7]; Nu/Nu, mouse): 7.09 | Cl, total body clearance ([7]; Nu/Nu, mouse, 41 umol/kg): 1.18 | Vd, apparent volume of distribution ([7]; Nu/Nu, mouse, 41 umol/kg): 0.07 L | AUC in liver ([7]; 41 umol/kg): 62 | AUC in tumour ([7]; 41 umol/kg): 3.3
